≈ marks a conversion by molar mass, not a printed value. Read-outs that look alike come from different tables or passages of the source.
How the values were obtained:
[1] = target: T1, hGPR65 (Homo sapiens, UniProt Q8IYL9); assay: cAMP detection in HeLa expression cell line, hGPR65; type: cell-based; settings: for activity for hGPR65 among prioritized molecules: 1.56 μM; for activity for hGPR65 among prioritized molecules / cAMP activity, hGPR65: pH 7.2; for Emax: HeLa, relative to 100uM forskolin (100%) and DMSO (0%), read-out: hGPR Max Activity %
T1 construct: expressed in transfected cells; host or cells: HeLa (ATCC CCL-2), lentiviral transduction, pLX317
Outline: (§1)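 TR-FRET cAMP read-out (Lance Ultra; ex 337 nm, em 620 and 665 nm) after 1 h detection in the dark, following a 30 min RT stimulation of 1500 cells per well in pH 7.2 stimulation buffer with compound supplied as 10 mM DMSO stock. Cells: lentivirally transduced HeLa lines carrying V5-tagged GPCR or GFP, kept under 3 μg/ml puromycin.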

[2] = target: T2, mGPR65 (Mus musculus, UniProt Q61038); assay: cAMP detection in HeLa expression cell line, mGPR65; type: cell-based; settings: for activity for mGPR65 among prioritized molecules: 1.56 μM; for activity for mGPR65 among prioritized molecules / cAMP activity, mGPR65: pH 7.2; for Emax: HeLa, relative to 100uM forskolin (100%) and DMSO (0%), read-out: mGPR Max Activity %; for EC50: mGPR EC50 (uM)
T2 construct: expressed in transfected cells; host or cells: HeLa (ATCC CCL-2), lentiviral transduction, pLX317
Outline: as §1

[3] = target: T3, human GPR4 (hGPR4) (Homo sapiens, UniProt P46093); assay: cAMP detection in HeLa expression cell line, hGPR4; type: cell-based; settings: GPR4 EC50 (uM); pH 7.2, 30 min
T3 construct: expressed in transfected cells; host or cells: HeLa (ATCC CCL-2), lentiviral transduction, pLX317
Protocol: HeLa stable expression cell lines were produced by lentiviral transduction. Briefly, lentiviral plasmids for each GPCR with a C-terminal V5 Tag ([…]) were made in a pLX317 backbone using competent Escherichia coli (New England Biolabs, C3050H). Lenti-X 293 T (Takara, 632810) cells were transfected with the lentiviral plasmids to produce virus. Low-passage HeLa cells (American Type Culture Collection, CCL-2) were then transduced with lentivirus. After 48 hours, HeLa cells were cultured under selection with puromycin (3 μg/ml) and allowed to recover and expand before storing stocks in liquid nitrogen.
cAMP was measured in cells using the Lance Ultra cAMP Kit. HeLa cells were cultured under puromycin (3 μg/ml) selection. One day before the experiment, cells were seeded in T75 flasks and allowed to adhere overnight. On the day of the experiment, cells were washed twice with Dulbecco’s PBS and lifted using prewarmed 1× versene solution (Gibco, 15040066). Cells were counted in HBSS (Gibco, 14025092) and then resuspended in stimulation buffer prepared according to the manufacturer’s instructions and adjusted to pH 7.2 using 1 M sodium hydroxide. Cells were added to the plate at a density of 1500 cells per well in white opaque 384-well assay ready microplates containing 100 nl of 10 mM compound in DMSO. Cells were stimulated for 30 min at RT, then lysed and incubated with detection reagents for 1 hour in the dark at RT. Plates were read on BMG Labtech PHERAstar FSX (excitation, 337 nm; emission, 620 and 665 nm). Data analysis was performed using GraphPad Prism.

[4] = target: T4, hGPR65-SmBiT (Homo sapiens, UniProt Q8IYL9); assay: Nano-BiT target engagement, LgBiT-mGs recruitment to hGPR65-SmBiT in Expi293F cells; type: cell-based; settings: 10 μM; for activity after HCl versus water, hGPR65: HCl or H2O at cycle 10
T4 construct: expressed in transfected cells; host or cells: Expi293F (Gibco), transient transfection
Protocol: (§2) Target engagement was measured in Expi293F (Gibco, 100044202) cells using the Nano-Glo Live Cell Assay System (Promega, N2011). Nano-BiT plasmids were cloned from GPR65-, GPR4-, and GPR68-Tango plasmids. GPR65-Tango (Addgene plasmid # 66370; http://n2t.net/addgene:66370; RRID:Addgene_66370), GPR4-Tango (Addgene plasmid # 66358; http://n2t.net/addgene:66358; RRID:Addgene_66358), and GPR68-Tango (Addgene plasmid # 66371; http://n2t.net/addgene:66371; RRID:Addgene_66371) were gifts from Bryan Roth. Expi293F cells were transfected 1 day before kinetics with 500 ng of each plasmid using ExpiFectamine 293 Transfection Kit (Gibco, A14525). After 24 hours, cells were collected, washed, and resuspended in room temperature 0.1% PBS-BSA, adjusted to pH 7.4 using 1 M NaOH. Cells were transferred to white opaque 96-well microplates (100 μl per well, PerkinElmer, 6005290), followed by addition of the Nano-Glo Live Cell Reagent (25 μl per well). Baseline luminescence was measured for 10 cycles (1 cycle = 90 s) before adding compounds. All luminescence measurements were made on BMG Labtech PHERAstar FSX. Data analysis was performed using GraphPad Prism.

[5] = target: T5, mGPR65-SmBiT (Mus musculus, UniProt Q61038); assay: Nano-BiT target engagement, LgBiT-mGs recruitment to mGPR65-SmBiT; type: cell-based; settings: 10 μM; for activity after HCl versus water, mGPR65: HCl or H2O at cycle 10
T5 construct: expressed in transfected cells; host or cells: Expi293F (Gibco), transient transfection
Protocol: as §2

[6] = target: T6, hGPR4-SmBiT (Homo sapiens, UniProt P46093); assay: Nano-BiT target engagement, LgBiT-mGs recruitment to hGPR4-SmBiT; type: cell-based; settings: 10 μM
T6 construct: expressed in transfected cells; host or cells: Expi293F (Gibco), transient transfection
Protocol: as §2

[7] = Solubility in phosphate buffer; type: physicochemical
[8] = Lipophilicity (logD); type: physicochemical
[9] = Comment on solubility in SAR table; type: physicochemical
Description: Supplement sciadv.adn2339_data_s1_to_s4.zip/sciadv.adn2339_data_s2.xlsx, sheet "SAR cAMP Assay"

[10] = target: T7, hGPR65 I231L-SmBiT (Homo sapiens, UniProt Q8IYL9, I231L); assay: Nano-BiT target engagement, LgBiT-mGs recruitment to hGPR65 I231L-SmBiT; type: cell-based; settings: 10 μM
T7 construct: expressed in transfected cells; host or cells: Expi293F (Gibco), transient transfection
Protocol: as §2

[11] = tested on: WT HeLa cells expressing hGPR65; assay: Cytotoxicity assay (CellTiter-Glo, 72 hours); type: cell-based, human
Protocol: WT HeLa cells expressing hGPR65 were seeded at 2000 cells per well in 384-well plates. Compounds were tested in 10-point dose, starting at 50 μM. Cells were incubated with compounds for 72 hours at 37°C, 5% CO2. Cytotoxicity was measured using CellTiter-Glo Luminescent Cell Viability Assay (Promega, G7572) according to the manufacturer’s protocol. Luminescence measurements were made on BMG Labtech PHERAstar FSX. Data analysis was performed using GraphPad Prism.

[12] = 1st hGPR column pair, NA = no activity
[13] = 2nd hGPR column pair, NA = no activity
[14] = hGPR EC50 (uM), NA = no activity
[15] = 2nd mGPR column pair, NA = no activity
[16] = first pair of columns, pH 7.2, 30 min
[17] = second pair of columns, pH 7.2, 30 min
[18] = pH 7.4, pH7.4, read-out: LogD (pH7.4)

T2 sequence (Q61038 whole entry): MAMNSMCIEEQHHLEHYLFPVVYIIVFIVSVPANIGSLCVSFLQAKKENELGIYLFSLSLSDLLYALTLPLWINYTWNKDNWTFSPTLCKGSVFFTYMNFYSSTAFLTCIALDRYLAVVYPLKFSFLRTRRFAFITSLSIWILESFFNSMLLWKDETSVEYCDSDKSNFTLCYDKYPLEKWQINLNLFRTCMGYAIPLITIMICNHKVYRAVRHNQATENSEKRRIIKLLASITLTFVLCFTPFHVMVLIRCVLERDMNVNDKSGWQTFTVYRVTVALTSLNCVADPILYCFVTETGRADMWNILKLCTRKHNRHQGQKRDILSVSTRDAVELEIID
T5 sequence (Q61038 whole entry): as above
T1 sequence (Q8IYL9 whole entry): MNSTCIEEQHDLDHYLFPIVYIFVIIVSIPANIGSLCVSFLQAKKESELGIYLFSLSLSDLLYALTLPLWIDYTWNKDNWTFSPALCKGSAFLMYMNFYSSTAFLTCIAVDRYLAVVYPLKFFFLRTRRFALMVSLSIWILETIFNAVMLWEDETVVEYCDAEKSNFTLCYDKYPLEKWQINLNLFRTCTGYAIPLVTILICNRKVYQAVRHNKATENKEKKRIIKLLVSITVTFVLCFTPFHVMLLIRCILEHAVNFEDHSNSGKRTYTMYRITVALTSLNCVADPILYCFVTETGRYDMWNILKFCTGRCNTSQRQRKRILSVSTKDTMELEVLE
T4 sequence (Q8IYL9 whole entry): as above
T6 sequence (P46093 whole entry): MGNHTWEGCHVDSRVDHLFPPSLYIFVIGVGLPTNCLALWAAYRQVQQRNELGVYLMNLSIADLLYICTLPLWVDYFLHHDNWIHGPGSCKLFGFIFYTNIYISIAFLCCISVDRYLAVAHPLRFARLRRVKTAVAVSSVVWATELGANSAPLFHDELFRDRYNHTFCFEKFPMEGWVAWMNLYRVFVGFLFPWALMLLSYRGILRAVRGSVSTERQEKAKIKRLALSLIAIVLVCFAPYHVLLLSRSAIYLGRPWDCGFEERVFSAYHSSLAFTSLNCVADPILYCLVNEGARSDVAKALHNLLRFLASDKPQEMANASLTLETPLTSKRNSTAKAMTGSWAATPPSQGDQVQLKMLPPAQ
T3 sequence (P46093 whole entry): as above
T7 sequence (Q8IYL9 whole entry I231L): as the sequence (Q8IYL9 whole entry) above, with I231L counted along it

Structure (SMILES)	activity for hGPR65 among prioritized molecules [1]	Emax [1, 12] [%]	Emax [1, 13] [%]	EC50 [1, 14] [µM]	EC50 ([1]; hGPR EC50 (uM), pH 7.2, 30 min) [µM]	EC50 ([1]; hGPR EC50, NA = no activity) [µM]	EC50 ([1]; hGPR EC50, pH 7.2, 30 min) [µM]	cAMP activity, hGPR65 [1]	activity for mGPR65 among prioritized molecules [2]	Emax [2, 15] [%]	Emax ([2]; NA = no activity) [%]	EC50 [2, 15] [µM]	EC50 [2, 16] [µM]	EC50 [2, 17] [µM]	EC50 ([2]; NA = no activity) [µM]	cAMP activity, mGPR65 [2]	mGs recruitment / engagement of hGPR65 [4]	activity after HCl versus water, hGPR65 [4]	mGs recruitment / engagement of mGPR65 [5]	activity after HCl versus water, mGPR65 [5]	also measured
Cc1ccc(NC(=O)c2cnn3c(O)cc(-c4ccc(COC(C)C)c(Cl)c4)nc23)cc1 [BRD5059, O=C(NC1=CC=C(C)C=C1)C2=C3N(N=C2)C(O)=CC(C4=CC=C(COC(C)C)C(Cl)=C4)=N3]	highest activity	76	75.4	0.577	0.478	0.288	0.618	at least 40%	highest activity	42.2	51	0.379	0.591	0.546	0.505	at least 40%	showed engagement	showed activity when preceded by the addition of HCl but not water	showed engagement	showed activity when preceded by the addition of HCl but not water	EC50 [3]: 1.68 µM; response in cells expressing hGPR4-SmBiT [6]: failing to elicit responses; solubility ([7]; read-out: Solubility): < 1.56 µM; logD [8, 18]: > 5.25
Cc1ccc(NC(=O)c2cnn3c(O)cc(-c4ccc(-c5ccncc5)cc4)nc23)cc1 [BRD0844]																					Emax ([1]; first pair): 30.3%; EC50 ([1]; SAR cAMP assay, first EC50/Max pair of hGPR columns, read-out: hGPR EC50): 7.97 µM; Comments (solubility) [9]: Poor solubility.
Cc1ccc(NC(=O)c2cnn3c(O)cc(-c4ccc(COC(C)C)cc4)nc23)c(F)c1 [BRD5080, O=C(NC1=C(F)C=C(C)C=C1)C2=C3N(N=C2)C(O)=CC(C4=CC=C(COC(C)C)C=C4)=N3]	highest activity	80	70.4	0.856	1.41	1.66	1.5	at least 40%	highest activity	56	63.5	0.371	0.432	0.653	0.0578	at least 40%	showed engagement	showed activity when preceded by the addition of HCl but not water	showed engagement	showed activity when preceded by the addition of HCl but not water	mode of action from pH-dependent cAMP production ([1]; 0 to 50 μM, pH range of 6.6 to 7.6): PAMs; cAMP response against mGPR65 among prioritized compounds ([2]; HeLa cells): highest cAMP response; response in cells expressing hGPR4-SmBiT [6]: failing to elicit responses; G protein recruitment in cells expressing hGPR65 I231L [10]: able to recruit G protein; cell viability ([11]; 50 μM, 72 hours): slight decrease in cell viability; cytotoxicity ([11]; 72-hour incubation, 0-50 μM): not cytotoxic; solubility ([7]; read-out: solubility in phosphate buffer): 13.6 µM (≈ 5.91 µg/mL); logD [8, 18]: 3.65; logD ([8]; read-out: lipophilicity (logD)): 3.62

Source: article PMC11259170, “Small-molecule probe for IBD risk variant GPR65 I231L alters cytokine signaling networks through positive allosteric modulation” (Science Advances, 2024)
